# Reference: patent US12312359B2 (Vitae Pharmaceuticals, LLC, priority 2016, dated 2025)
# Target: T1, biotinylated wild-type menin and MLL-AF9 fusion protein (menin/MLL binding) (Homo sapiens, UniProt O00255)
# T1 construct: made in house; host or cells: menin: E. coli; MLL-AF9-FLAG: HEK293 cells, used as cleared lysate
# T1 sequence (O00255 1-610): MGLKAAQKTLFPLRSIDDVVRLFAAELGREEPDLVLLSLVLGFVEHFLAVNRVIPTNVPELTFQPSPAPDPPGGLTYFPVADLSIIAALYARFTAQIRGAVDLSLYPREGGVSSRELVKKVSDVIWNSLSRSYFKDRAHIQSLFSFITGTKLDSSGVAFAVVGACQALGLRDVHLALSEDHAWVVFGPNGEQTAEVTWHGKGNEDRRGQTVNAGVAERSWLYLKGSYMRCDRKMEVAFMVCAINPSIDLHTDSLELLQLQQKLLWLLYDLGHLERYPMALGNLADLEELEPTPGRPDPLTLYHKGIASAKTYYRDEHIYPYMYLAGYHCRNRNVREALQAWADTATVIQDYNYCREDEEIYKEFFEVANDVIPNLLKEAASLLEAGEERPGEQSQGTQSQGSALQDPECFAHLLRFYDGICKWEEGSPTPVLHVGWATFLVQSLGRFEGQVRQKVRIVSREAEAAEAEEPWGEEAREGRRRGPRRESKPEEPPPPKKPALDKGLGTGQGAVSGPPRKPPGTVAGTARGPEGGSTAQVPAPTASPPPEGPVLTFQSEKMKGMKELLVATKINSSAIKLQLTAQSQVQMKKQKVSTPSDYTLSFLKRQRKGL
# Experiment: Assay 1: menin/MLL binding AlphaLISA assay, wild-type menin
# Conditions: Table 30; column head does not say wild-type or mutated menin
# Description: Potencies of inhibitor compounds against menin/MLL binding were assessed by AlphaLISA assay using biotinylated (1) wild-type menin or (2) mutated menin (described in Huang et al, 2012, Nature, 482, 542-546) and MLL-AF9 fusion protein bearing a FLAG epitope at its C-terminus. Menin proteins were expressed in E. coli and covalently modified with biotin using EZ-Link™ Sulfo-NHS-Biotin (ThermoFisher Cat.No. 21217) according to manufacturer's protocol. MLL1-1,396 fused to AF91-92 and the C-terminal FLAG peptide was expressed in HEK293 cells and used as a lysate cleared at 21,000×g for 10 min.
# Compounds (2 μL of solutions in DMSO) were dispensed in white 96-well half-area plates (Corning Cat.No. 3693) and incubated for 30 min at RT with 5 nM biotinylated menin and appropriate amount of MLL-AF9-FLAG lysate in 40 μL of 50 mM Tris-HCl buffer pH 7.4 containing 5% (v/v) DMSO, 50 mM NaCl, 0.01% (w/v) bovine serum albumin (BSA) and 1 mM DTT. To this incubation mixture, 40 μL of AlphaLISA anti-FLAG acceptor (PerkinElmer Cat.No. AL112C) and streptavidin donor (PerkinElmer Cat.No. 6760002) beads (10 μg/mL each) was added and incubation continued at RT for 60 min. Alpha (amplified luminescent proximity homogeneous assay) signal was measured on an Envision multi-label plate reader at the end of the incubation. All steps were conducted under dim fluorescent light.
# These percent inhibition values were regressed against compound concentrations in the assay using four parameter logit non-linear curve fitting (XLFit, IDBS). The IC50 values were derived from the curve fitting as inflection points on the dose-response curves and are set out in Table 30 below.
row,IC50,SMILES
1,< 100 nM,"CCc1ccccc1-c1cc(F)ccc1Nc1cncnc1N1CCC2(CC1)CN(CC(C)C)C2 [Example 247, N-(2′-ethyl-S-fluoro-[1,1′-biphenyl]-2-yl)-4-(2-isobutyl-2,7-diazaspiro[3.5]nonan-7-yl) pyrimidin-5-amine]"
2,< 100 nM,"Cc1noc(C(C)C)c1-c1cc(F)ccc1Nc1cncnc1N1CC2(CN(CC3CCOCC3)C2)C1 [Example 14A, N-(4-fluoro-2-(5-isopropyl-3-methylisoxazol-4-yl)phenyl)-4-(6-((tetrahydro-2H-pyran-4-yl)methyl)-2,6-diazaspiro[3.3]heptan-2-yl)pyrimidin-5-amine]"
3,< 100 nM,"CC(C)c1ncncc1-c1cc(F)ccc1Oc1cncnc1N1CCC2(CC(N3CCc4cc(F)ccc4C3)CO2)C1 (stereo not shown) [Example 157, 7-(5-(4-fluoro-2-(4-isopropylpyrimidin-5-yl)phenoxy)pyrimidin-4-yl)-3-(6-fluoro-3,4-dihydroisoquinolin-2(1H)-yl)-1-oxa-7-azaspiro[4.4]nonane]"
4,< 100 nM,"CC(C)n1nccc1-c1cc(F)ccc1Oc1cncnc1N1CCC2(CC(=O)N(Cc3ccc4[nH]c(=O)[nH]c4c3)C2)C1 (stereo not shown) [Example 13, 5-((7-(5-(4-fluoro-2-(1-isopropyl-1H-pyrazol-5-yl)phenoxy)pyrimidin-4-yl)-3-oxo-2,7-diazaspiro[4.4]nonan-2-yl)methyl)-1H-benzo[d]imidazol-2(3H)-one]"
5,100 to 1000 nM,"CC(C)c1ncncc1-c1cc(F)ccc1Oc1cncnc1N1CCC2(CC(NCc3ccc(F)cc3)CO2)C1 (stereo not shown) [Example 20, 7-(5-(4-fluoro-2-(4-isopropylpyrimidin-5-yl)phenoxy)pyrimidin-4-yl)-N-(4-fluorobenzyl)-1-oxa-7-azaspiro[4.4]nonan-3-amine]"
6,100 to 1000 nM,"CC(C)n1nccc1-c1cc(F)ccc1Oc1cncnc1N1CCC2(CCN(C(=O)C(N)C3CCCCC3)C2)C1 (single isomer, unassigned) [Example 206B, 2-amino-2-cyclohexyl-1-(7-(5-(4-fluoro-2-(1-isopropyl-1H-pyrazol-5-yl)phenoxy)pyrimidin-4-yl)-2,7-diazaspiro[4.4]nonan-2-yl)ethanone]"
7,100 to 1000 nM,"CC1(C)C(=O)Nc2cc(CN3CCC4(C3)CN(c3ncncc3Oc3ccc(F)cc3Cl)C4)ccc21 [Example 39, 6-((2-(5-(2-chloro-4-fluorophenoxy)pyrimidin-4-yl)-2,6-diazaspiro[3.4]octan-6-yl)methyl)-3,3-dimethylindolin-2-one]"
8,100 to 1000 nM,"CN(C)C(=O)c1csc(N2CCC3(CCN(c4ncncc4Oc4ccc(F)cc4-c4ccc(C#N)cc4C4CC4)C3)C2)n1 (stereo not shown) [Example 58, 2-(7-(5-((4′-cyano-2′-cyclopropyl-5-fluoro-[1,1′-biphenyl]-2-yl)oxy)pyrimidin-4-yl)-2,7-diazaspiro[4.4]nonan-2-yl)-N,N-dimethylthiazole-4-carboxamide]"
9,< 100 nM,"CC(C)c1ccccc1-c1cc(F)ccc1Nc1cncnc1N1CCC2(CCN(Cc3ccc4[nH]c(=O)[nH]c4c3)C2)C1 (stereo not shown) [Example 243, 5-((7-(5-((5-fluoro-2′-isopropyl-[1,1′-biphenyl]-2-yl)amino)pyrimidin-4-yl)-2,7-diazaspiro [4.4]nonan-2-yl)methyl)-1,3-dihydro-2H-benzo[d]imidazol-2-one]"
10,< 100 nM,"CC(C)c1ncncc1-c1cc(F)ccc1Nc1cncnc1N1CC2(CN(CC3CCOCC3)C2)C1 [Example 244, N-(4-fluoro-2-(4-isopropylpyrimidin-5-yl)phenyl)-4-(6-((tetrahydro-2H-pyran-4-yl)methyl)-2,6-diazaspiro[3.3]heptan-2-yl) pyrimidin-5-amine]"
11,< 100 nM,"CC(C)(F)c1cc(F)ccc1-c1cc(F)ccc1Oc1cncnc1N1CC2(CN(CC3CCOCC3)C2)C1 [Example 31, 2-(5-((4′,5-difluoro-2′-(2-fluoropropan-2-yl)-[1,1′-biphenyl]-2-yl)oxy)pyrimidin-4-yl)-6-((tetrahydro-2H-pyran-4-yl)methyl)-2,6-diazaspiro[3.3]heptane]"
12,100 to 1000 nM,"N#Cc1ccc(-c2cc(F)ccc2Oc2cncnc2N2CCC3(CCC(N)(Cc4ccccc4)C3)C2)c(C2CC2)c1 (single isomer, unassigned) [Example 250A, 2′-((4-(7-amino-7-benzyl-2-azaspiro[4.4]nonan-2-yl)pyrimidin-5-yl)oxy)-2-cyclopropyl-5′-fluoro-[1,1′-biphenyl]-4-carbonitrile]"
13,< 100 nM,"CNC(=O)c1csc(N2CCC3(CCN(c4ncncc4Oc4ccc(F)cc4-c4ccc(C#N)cc4C4CC4)C3)C2)n1 (stereo not shown) [Example 57, 2-(7-(5-((4′-cyano-2′-cyclopropyl-5-fluoro-[1,1′-biphenyl]-2-yl)oxy)pyrimidin-4-yl)-2,7-diazaspiro[4.4]nonan-2-yl)-N-methylthiazole-4-carboxamide]"
14,< 100 nM,"CC(C)NS(=O)(=O)c1cc(F)ccc1Oc1cncnc1N1CC2(CN(CC3CCOCC3)C2)C1 [Example 32, 5-fluoro-N-isopropyl-2-((4-(6-((tetrahydro-2H-pyran-4-yl)methyl)-2,6-diazaspiro[3.3]heptan-2-yl)pyrimidin-5-yl)oxy)benzenesulfonamide]"
15,< 100 nM,"CC(C)N(C(=O)c1cc(F)ccc1Oc1cncnc1N1CCC2(CCC(N)(Cc3ccc(C#N)cc3)C2)C1)C(C)C (single isomer, unassigned) [Example 22B, 2-((4-(7-amino-7-(4-cyanobenzyl)-2-azaspiro[4.4]nonan-2-yl)pyrimidin-5-yl)oxy)-5-fluoro-N,N-diisopropylbenzamide]"
16,100 to 1000 nM,"CC(C)N(C)C(=O)c1cc(F)ccc1Oc1cncnc1N1CCC2(CCN(Cc3cccc(N4CCOC4=O)c3)C2)C1 (stereo not shown) [Example 61, 5-fluoro-N-isopropyl-N-methyl-2-((4-(7-(3-(2-oxooxazolidin-3-yl)benzyl)-2,7-diazaspiro[4.4]nonan-2-yl)pyrimidin-5-yl)oxy)benzamide]"
17,100 to 1000 nM,"CC(C)N(C(=O)c1cc(F)ccc1Oc1cncnc1N1CCC2(CC(O)C(Cc3ccc4[nH]c(=O)[nH]c4c3)C2)C1)C(C)C (single isomer, unassigned) [Example 23B, 5-fluoro-2-((4-(7-hydroxy-8-((2-oxo-2,3-dihydro-1H-benzo[d]imidazol-5-yl)methyl)-2-azaspiro[4.4]nonan-2-yl)pyrimidin-5-yl)oxy)-N,N-diisopropylbenzamide]"
18,< 100 nM,"CCc1ccccc1-c1cc(F)ccc1Nc1cncnc1N1CCC2(CC1)CN(CC(C)(C)O)C2 [Example 71, 1-(7-(5-((2′-ethyl-5-fluoro-[1,1′-biphenyl]-2-yl)amino)pyrimidin-4-yl)-2,7-diazaspiro[3.5]nonan-2-yl)-2-methylpropan-2-ol]"
19,≥ 1000 nM,"CC(C)c1ncncc1-c1cc(F)ccc1Oc1cncnc1N1CCC2(CCC(Cc3ccccc3)C2)C1 (stereo not shown) [Example 59, 7-benzyl-2-(5-(4-fluoro-2-(4-isopropylpyrimidin-5-yl)phenoxy)pyrimidin-4-yl)-2-azaspiro[4.4]nonane]"
20,100 to 1000 nM,"CNC(=O)[C@H]1CC[C@H](CN2CCC3(CC2)CN(c2ncncc2Oc2ccc(F)cc2C(=O)N(C)C(C)C)C3)CC1 [Example 21, 5-fluoro-N-isopropyl-N-methyl-2-((4-(7-(((1r,4r)-4-(methylcarbamoyl)cyclohexyl)methyl)-2,7-diazaspiro[3.5]nonan-2-yl)pyrimidin-5-yl)oxy)benzamide]"
21,100 to 1000 nM,"CCc1ccccc1-c1cc(F)ccc1Cc1cnccc1N1CC2(CN(CC3CCOCC3)C2)C1 [Example 78, 2-(3-((2′-ethyl-5-fluoro-[1,1′-biphenyl]-2-yl)methyl)pyridin-4-yl)-6-((tetrahydro-2H-pyran-4-yl)methyl)-2,6-diazaspiro[3.3]heptane]"
22,< 100 nM,"CC(C)c1ccccc1-c1cc(F)ccc1Nc1cnccc1N1CC2(CN(CC3CCOCC3)C2)C1 [Example 30, N-(5-fluoro-2′-isopropyl-[1,1′-biphenyl]-2-yl)-4-(6-((tetrahydro-2H-pyran-4-yl)methyl)-2,6-diazaspiro[3.3]heptan-2-yl)pyridin-3-amine]"
